# Test results from US20260374792A1, “PHENYL-FREE BISCATIONIC QUATERNARY PHOSPHONIUM COMPOUNDS AS ANTIMICROBIAL AGENTS” (priority 2022, published 2026).
# Read-outs that look alike come from different tables or passages of the source.
# Tests used:
# MSSA (SH1000) = assay: MIC against methicillin-susceptible S. aureus (MSSA); type: cell-based; settings: Staphylococcus aureus
# Experimental: (§1) The term “minimum inhibitory concentration (MIC)” means the lowest concentration of an antimicrobial agent that will inhibit the visible growth of a microorganism after overnight incubation. MIC values against bacteria, for example, the Gram-positive Staphylococcus aureus and Enterococcus faecalis and the Gram-negative Escherichia coli and Pseudomonas aeruginosa were determined by standard methods. See also P. A. Wayne, Methods for Dilution Antimicrobial Tests for Bacteria that Grow Aerobically; Approved Standard, Ninth Edition, 2012, CLSI Document M07-A9, Vol. 32 No. 2.
# (§2) Biological testing procedures were adapted from prior work by Melander and coworkers. For all biological assays, laboratory strains of methicillin-susceptible Staphylococcus aureus MSSA (SH1000), Staphylococcus aureus CA-MRSA (USA300-0114), Staphylococcus aureus HA-MRSA (ATCC 33591), Escherichia coli (MC4100), Enterococcus faecalis (OG1RF), Acinetobacter baumannii (ATCC 17978), were grown with shaking at 37 °C overnight from freezer stocks in 5 mL of the indicated media: SH1000, OG1RF, MC4100, USA300-0114, and ATCC 17978 were grown in BDTM Mueller-Hinton broth (MHB), whereas ATCC 33591 was grown in BDTM tryptic soy broth (TSB). The inoculum were then streaked onto Mueller-Hinton agar (MHA) plates and grown overnight at 37 °C. From the plates, single colonies were selected, diluted into 50 mL of fresh media and grown overnight at 37 °C with shaking for use in the MIC assays. Optical density (OD) measurements were obtained using a SpectraMax iD3 plate reader (Molecular Devices, United States).
# (§3) Compounds were serially diluted two-fold from stock solutions (1.0 mM) to yield twelve 100 μL test concentrations, wherein the starting concentration of dimethyl sulfoxide (DMSO) was 2.5%. Overnight S. aureus, E. faecalis, E. coli, A. baumannii, USA300-0114 (CA-MRSA), and ATCC 33591 (HA-MRSA) cultures were diluted to ca. 10^6 CFU/mL in MHB or TSB and regrown to mid-exponential phase, as determined by optical density recorded at 600 nm (OD600). All cultures were then diluted again to ca. 10^6 CFU/mL and 100 μL were inoculated into each well of a U-bottom 96-well plate (Corning, 351177) containing 100 μL of compound solution. Plates were incubated statically at 37 °C for 72 hours upon which wells were evaluated visually for bacterial growth. The MIC was determined as the lowest concentration of compound resulting in no bacterial growth visible to the naked eye, based on the highest value in three independent experiments. Aqueous DMSO controls were conducted as appropriate for each compound.
# (§4) The prepared library of biscationic amphiphilic compounds was assessed for performance as antibacterial disinfectants by determining the minimum inhibitory concentration (MIC) for each against a panel of bacteria. The bacteria selected for the study were chosen to evaluate the broad spectrum antimicrobial performance of the QPCs, and therefore, included both Gram-positive and Gram-negative bacterial strains, including those with known antimicrobial resistance mechanisms. These bacteria include the Gram-positive strains of methicillin-susceptible Staphylococcus aureus [MSSA; SH1000], community-acquired methicillin-resistant Staphylococcus aureus [CA-MRSA; USA 300-0114], hospital-acquired methicillin-resistant Staphylococcus aureus [HA-MRSA; ATCC 33591] and the […], Escherichia coli [MC4100], Acinetobacter baumannii [ATCC 17498] and Pseudomonas aeruginosa [PAO1].
# CA-MRSA (USA300-0114) = assay: MIC against community-acquired methicillin-resistant S. aureus (CA-MRSA); type: cell-based; settings: Staphylococcus aureus, 72 h
# Experimental: as §1, §2, §3, §4
# HA-MRSA (ATCC 33591) = assay: MIC against hospital-acquired methicillin-resistant S. aureus (HA-MRSA); type: cell-based; settings: Staphylococcus aureus, 72 h
# Experimental: as §1, §2, §3, §4
# E. faecalis (OG1RF) = assay: MIC against E. faecalis; type: cell-based; settings: Enterococcus faecalis, 72 h
# Experimental: as §1, §2, §3, §4
# E. coli (MC4100) = assay: MIC against E. coli; type: cell-based; settings: Escherichia coli, 72 hours, 37 °C
# Experimental: as §1, §2, §3, §4
# A. baumannii = assay: MIC against A. baumannii; type: cell-based; settings: Acinetobacter baumannii, 72 h
# Experimental: as §1, §2, §3, §4
# P. aeruginosa (PAO1) = assay: MIC against P. aeruginosa; type: cell-based; settings: Pseudomonas aeruginosa
# Experimental: as §1, §2, §3, §4
# red blood cells = assay: Red Blood Cell (RBC) Lysis Assay (lysis20); type: cell-based, sheep; settings: concentration inducing 20% RBC lysis; sheep blood, 1 hour, 37 °C
# Experimental: RBC lysis assays were performed on mechanically defibrinated sheep blood (Hemostat Labs: DSB030). An aliquot of 1.5 mL blood was placed into a microcentrifuge tube and centrifuged at 3,800 rpm for ten minutes. The supernatant was removed, and the cells were resuspended with 1 mL of phosphate-buffered saline (PBS). The suspension was centrifuged as described above, the supernatant was removed, and cells were resuspended 4 additional times in 1 mL PBS. The final cell suspension was diluted twentyfold with PBS. Compounds were serially diluted with PBS two-fold from stock solutions (1.0 mM) to yield 100 μL of twelve test concentrations on a flat-bottom 96-well plate (Corning, 351172), wherein the starting concentration of DMSO was 2.5%. To each of the wells, 100 μL of the twentyfold suspension dilution was then inoculated. TritonX (1% by volume) served as a positive control (100% lysis marker) and sterile PBS served as a negative control (0% lysis marker). Samples were then placed in an incubator at 37 °C and shaken at 200 rpm. After 1 hour, the samples were centrifuged at 3,800 rpm for ten minutes. The absorbance of the supernatant was measured with a UV spectrometer at a 540 nm wavelength. The concentration inducing 20% RBC lysis was then calculated for each compound based upon the absorbances of the TritonX and PBS controls. Aqueous DMSO controls were conducted as appropriate for each compound.
# The potential cytotoxicity of the compounds was also considered with the evaluation of hemolysis (lysis20) assays with 20% lysis of red blood cells serving as an indicator of potentially toxic compounds. Finally, the bioactivity of these compounds were benchmarked against a commercial benzalkonium chloride source (BAC; 70% benzyldimethyldodecylammonium chloride, and 30% benzyldimethyltetradecylammonium chloride) as well as some previously reported disinfectant compounds from the inventors' groups; included were bisQPC ^PhP6P-10,10 as well as ^PhP2P-10,10 and 12(2)12. A detailed description of the experimental procedures used to evaluate bioactivity and hemolysis assays are described above.
# [1] = MSSA (SH1000), 72 hours, 37 °C, read-out: MIC
# [2] = P. aeruginosa (PAO1), 72 hours, 37 °C, read-out: MIC
SMILES,MIC (MSSA (SH1000); [1]),MIC (CA-MRSA (USA300-0114)),MIC (HA-MRSA (ATCC 33591)),MIC (E. faecalis (OG1RF)),MIC (E. coli (MC4100)),MIC (A. baumannii),MIC (P. aeruginosa (PAO1); [2]),Lysis20 (red blood cells),"MIC (MSSA (SH1000); MSSA, 72 h)","MIC (P. aeruginosa (PAO1); PAO1, 72 h)"
"CCCCCCCCCC[P+](CC)(CC)CC[P+](CC)(CC)CCCCCCCCCC [^EtP2P-10,10]",2 µM,1 µM,8 µM,16 µM,16 µM,32 µM,32 µM,63 µM,,
"CCCCCCCCCC[P+](CC[P+](CCCCCCCCCC)(C1CCCCC1)C1CCCCC1)(C1CCCCC1)C1CCCCC1 [^CyP2P-10,10]",1 µM,1 µM,1 µM,8 µM,8 µM,8 µM,8 µM,16 µM,,
"CCCCCCCC[P+](CC[P+](CCCCCCCC)(C1CCCCC1)C1CCCCC1)(C1CCCCC1)C1CCCCC1 [^CyP2P-8,8]",2 µM,2 µM,8 µM,63 µM,63 µM,125 µM,250 µM,125 µM,,
"CCCCCCCC[P+](C)(C)CC[P+](C)(C)CCCCCCCC [^MeP2P-8,8]",125 µM,125 µM,250 µM,> 250 µM,> 250 µM,> 250 µM,> 250 µM,250 µM,,
"CCCCCCCC[P+](CC)(CC)CC[P+](CC)(CC)CCCCCCCC [^EtP2P-8,8]",63 µM,125 µM,250 µM,> 250 µM,> 250 µM,> 250 µM,> 250 µM,250 µM,,
"CCCCCCCCCCC[P+](C)(C)CC[P+](C)(C)CCCCCCCCCCC [^MeP2P-11,11]",2 µM,1 µM,1 µM,2 µM,4 µM,16 µM,8 µM,16 µM,,
"CCCCCCCCCCCCCC[P+](C)(C)CC[P+](C)(C)CCCCCCCCCCC [^MeP2P-14,14]",8 µM,4 µM,8 µM,32 µM,32 µM,125 µM,63 µM,8 µM,,
"CCCCCCCCCCCCCC[P+](CC[P+](CCCCCCCCCCCCCC)(C1CCCCC1)C1CCCCC1)(C1CCCCC1)C1CCCCC1 [^CyP2P-14,14]",4 µM,4 µM,2 µM,32 µM,63 µM,63 µM,63 µM,8 µM,,
"CCCCCCCCCCCCCCCC[P+](CC)(CC)CC[P+](CC)(CC)CCCCCCCCCCCCCCCC [^EtP2P-16,16]",,16 µM,32 µM,63 µM,125 µM,260 µM,,16 µM,16 µM,125 µM
"CCCCCCCCCCCCCCCC[P+](CC[P+](CCCCCCCCCCCCCCCC)(C1CCCCC1)C1CCCCC1)(C1CCCCC1)C1CCCCC1 [^CyP2P-16,16]",8 µM,2 µM,2 µM,125 µM,125 µM,125 µM,63 µM,32 µM,,
"CCCCCCCCCC[P+](CC[P+](CCCCCCCCCC)(c1ccccc1)c1ccccc1)(c1ccccc1)c1ccccc1 [^PhP2P-10,10, reference compound]",1 µM,0.5 µM,1 µM,8 µM,4 µM,2 µM,8 µM,16 µM,,
"CCCCCCCCCCCCCCCC[P+](C)(C)CC[P+](C)(C)CCCCCCCCCCC [^MeP2P-16,16]",32 µM,32 µM,63 µM,250 µM,250 µM,> 250 µM,> 250 µM,125 µM,,
"CCCCCCCCCCC[P+](CC)(CC)CC[P+](CC)(CC)CCCCCCCCCCC [^EtP2P-11,11]",1 µM,1 µM,2 µM,4 µM,4 µM,8 µM,16 µM,16 µM,,
"CCCCCCCCCC[P+](C)(C)CC[P+](C)(C)CCCCCCCCCC [^MeP2P-10,10]",2 µM,2 µM,2 µM,16 µM,16 µM,63 µM,32 µM,63 µM,,
